{"source": "patent US20070219213A1", "about": "“Use of Adrenergic N-Phenylpiperazine Antagonists, Pahrmaceutical Compositions Containning Them, and Methods of Preparing Them” (priority 2004, published 2007)", "key": {"[1]": {"target": "T1, beta 2 adrenergic receptors (Cavia porcellus, UniProt Q8K4Z4)", "T1 construct": "from tissue; host or cells: guinea pig trachea strips pre-contracted with carbachol", "T1 sequence (Q8K4Z4 whole entry)": "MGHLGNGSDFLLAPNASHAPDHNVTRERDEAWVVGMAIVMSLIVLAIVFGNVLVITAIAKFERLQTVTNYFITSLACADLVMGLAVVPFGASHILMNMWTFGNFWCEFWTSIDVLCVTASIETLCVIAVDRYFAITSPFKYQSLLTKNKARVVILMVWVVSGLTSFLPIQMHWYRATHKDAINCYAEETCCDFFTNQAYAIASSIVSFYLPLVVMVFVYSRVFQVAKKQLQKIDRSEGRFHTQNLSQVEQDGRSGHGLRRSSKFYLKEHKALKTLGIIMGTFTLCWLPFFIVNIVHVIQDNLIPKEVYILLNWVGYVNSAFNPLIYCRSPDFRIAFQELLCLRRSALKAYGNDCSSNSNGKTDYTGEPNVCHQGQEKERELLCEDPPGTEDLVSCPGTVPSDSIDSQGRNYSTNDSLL", "assay": "Salbutamol relaxation of cobaio trachea pre-contracted with carbacol", "type": "cell-based, guinea pig", "details": "salbutamol 10^−10-3.3×10^−5 M, strips pre-contracted with carbacol 10 microM, n=4", "source_text": "Selectivity Assay for Protein G-Coupled, Beta-Adrenergic, Muscarinic Cholinergic and Histaminergic Bioreceptors\nDetermination of the Inhibitory Potency (IC50) of LASSBio 772 on Vasoconstriction of the Cobaio (Guinea Pig) Trachea\nCobaios albinos from both sexes, weighing between 400 and 600 g were used in this experiment. The animals were sacrificed by cervical displacement and posterior bleed. Then, their tracheas were removed, kept in 5 microM indometacin added Krebs-Henseleit physiologic solution and oxygenated with carbogenic mixture (95% O2 and 5% CO2), proceeding the removal of the connective and adhered adipose tissue. From these tracheas were obtained segments with 4-6 rings, that are sectioned in the opposite side of the smooth musculature, originating strips used in the contractions assay (ARAKIDA et al., J. Pharmacol. Exper. Therap., 287: 633-639, 1998). […]\nAfter the period, the organ is treated with agonists that will induce contractions. […] The tissue viability was evaluated by contraction induction with histamine 100 microM or carbacol 10 microM. […]\nIn another experiment the compound was evaluated for its capability to inhibit the relaxation produced by salbutamol (10^−10-3.3×10^−5 M), beta 2 adrenergic agonist, in strips of cobaio trachea pre-contracted with carbacol (10 microM)."}, "[2]": {"tested_on": "phenylephrine vasopressor effects", "assay": "Inhibition of phenylephrine vasopressor effects in anesthetized rabbits", "type": "in vivo", "details": "rabbit, i.v., versus control curve", "method": "Animal and Homodynamic Measurements:\nThe experiments were performed with male rabbits weighing 3 kg, from the CECAL (Centro de Criação de Animais de Laboratório) at Fundação Oswaldo Cruz. The animals were anesthetized with sodium pentobarbital (40 mg/kg) in the ear marginal vein, and anesthesia maintenance was obtained with supplemental intravenous (i.v.) doses of 5 mg/kg as necessary. The […] were tracheomized, inserted with a polyethylene canule, and immobilized with pancuronium bromide (1 mg/kg, i.v.), with supplemental doses of 0.2 mg/kg for each hour of experiment and artificially ventilated with a mechanical fan (Rodent ventilator 7025, Ugo Basile) with a volume of 10 ml/kg and frequency from 40 to 50 incursions/min. The right femoral vein was catheterized for drug administration.\nThe arterial pressure was monitored through abdominal aorta catheter via the right femoral artery and connected to a quartz transductor Hewlett Packard (1290 A), which was connected to an arterial pressure processor and recorder Hewlett Packard (system 7754 with amplifier 8805 B).\nThe systolic (SAP) and diastolic (DAP) arterial pressures were obtained directly from the records and the average arterial pressure (AAP) was calculated by DAP's Sum with a third of the differential pressure [[…]]. The cardiac frequency was determined by counting the pressure waves, visualized with the speed increase of the recorder paper.\nThe cardiac debit (DC) was monitored using an electromagnetic probe, connected to a Skalar flowmeter model MDL 1401. After left thoraxatomy, between the second and third ribs, was made an incision in the pericardium and the heart was exposed to enable the visualization and dissection of the ascending aorta for installation of the electromagnetic probe. The systemic vascular resistance (SVR) was calculated as a quotient of the average arterial pressure by the cardiac debit, multiplied by a conversion factor 80 (SVR=AAP/DC×80) and expressed in dyn/seg/cm-5.\nAt the conclusion of the anesthetic-surgical procedures, a 15-minute period was allowed for stabilization of the homodynamic parameters. Before any pharmacological manipulation the average arterial pressure, cardiac frequency and cardiac debit measurements were obtained. These values were considered basal homodynamic values.\nDose-Response Curve of the Phenylephrine Vasopressor Effect:\nAfter surgical procedures and stabilization of the homodynamic parameters, a dose-response curve of the phenylephrine pressure effects was performed ([…], i.v.), that were named control curves. […]\nThe results were expressed as average±standard deviation (E.P.M.) The administration effects of LASSBio 772 with regard to the basal values were analyzed through variance analysis (ANOVA) for repeated measurements. […]"}}, "note": "Entries after “also recorded” stand apart in the source; their conditions may differ."}
{"smiles": "COc1ccccc1N1CCN(CCc2ccc3c(c2)OCO3)CC1", "note": "[LASSBio 772, 1-(2-1,3-Benzodioxol-5-yl-ethyl)-4-(2-methoxy-phenyl)-piperazine]", "values": [{"measurement": "inhibition of the relaxation produced by salbutamol", "setting": "[1]", "result": "not able to inhibit significantly the relaxing effect of salbutamol; also recorded: did not present any activity"}, {"measurement": "blockade of phenylephrine effects", "setting": "[2]", "result": "significantly blocked; also recorded: prevented the phenylephrine hypo-tensor effect"}]}
